Columns and labels:
[1] = tested on: human cervical cancer Hela cells; test: Photosensitizer-mediated PDT, in vitro proliferation (MTT), Hela; type: cell-based; conditions: Hela
Procedure: (§1) Several kinds of tumor cells (human cervical cancer Hela cells, human hepatocellular carcinoma huh-7 cells and murine mammary carcinoma 4T1 cells) cultured in vitro from a variety of tissues were taken as cell models, so as to investigate the photodynamic effects mediated by different doses of CEFN, CEFO, Ce6 and HPPH on the three different tumor cells (n=3). The specific experimental procedures were carried out as follows.
(§2) Cells in the logarithmic growth phase were harvested and seeded in a 24-well plate. After growing to a confluence of 70-80%, the cells were randomly divided into a control group (free of drug and light irradiation), a drug group and a photodynamic group. The CEFN, CEFO, Ce6 and HPPH were added respectively in dark, and for each drug, four final concentrations 1, 2, 5, and 10 μg/mL were set with 3 replicates for each group. After the co-incubation, the groups were treated individually. Regarding the photodynamic group, the light irradiation was performed at a wavelength of 660 nm and three different light intensities, i.e., 2, 4 and 8 J/cm^2. After that, each group was digested, and were inoculated into a 96-well plate at 100 μL per well with 4 replicates for each treatment. 24 hours later, the 96-well plate was subjected to MTT assay as follows. Each well was added with 20 μL of MTT (3-4,5-dimethylthiazol-2,5-diphenyltetrazolium bromide) solution in the dark and incubated for 4 hours. The supernatant was discarded, and the residue was dissolved with 150 μL of dimethyl sulfoxide for 15 min. After that, the 96-well plate was measured by a microplate reader for the absorbance (OD value). The relative cell viability was calculated as follows: relative cell viability=OD value of experimental group/OD value of control group*100%.

[2] = tested on: murine mammary carcinoma 4T1 cells; test: Photosensitizer-mediated PDT, in vitro proliferation (MTT), 4T1; type: cell-based
Procedure: as §1, §2
In this experiment, photodynamic effect mediated by the compounds (except CEFO and CEFN) in different Examples of this disclosure on the murine mammary carcinoma 4T1 cells was investigated. The experimental procedures are carried out as follows. Cells in the logarithmic growth phase were harvested and seeded in a 24-well plate. After growing to a confluence of 70-80%, the cells were randomly divided into multiple photodynamic groups and multiple no-light control groups. The compounds (as shown in Table 8a) with a final concentration of 10 μg/mL were added to each group respectively in dark with 3 replicates for each group, so as to co-incubate the cells with the drug. Regarding the multiple photodynamic groups, the light irradiation was performed at a wavelength of 660 nm and the light intensity of 8 J/cm^2. After that, each group was digested, and were inoculated into a 96-well plate at 100 μL per well with 4 replicates for light treatment and no light treatment. 24 hours later, the 96-well plate was measured by MTT assay as follows. Each well was added with 20 μL of MTT (3-4,5-dimethylthiazol-2,5-diphenyltetrazolium bromide) solution in the dark and incubated for 4 hours. The supernatant was discarded, and the residue was dissolved with 150 μL of dimethyl sulfoxide for 15 min. After that, the 96-well plate was measured by a microplate reader for the absorbance (OD value). The relative cell viability of the murine mammary carcinoma 4T1 cells was calculated as follows according to the measured absorbance (OD value) in each group: relative cell viability=OD value of experimental group/OD value of control group*100%.

[3] = tested on: human hepatocellular carcinoma huh-7 cells; test: Photosensitizer-mediated PDT, in vitro proliferation (MTT), huh-7; type: cell-based
Procedure: as §1, §2

[4] = tested on: murine mammary carcinoma 4T1 cells; test: Antitumor activity as photosensitizers on tumor-bearing mice (one PDT treatment); type: in vivo; conditions: for Inhibitory rate (average ± SD, %) / Tumor weight (average ± SD, g): 660 nm, 75 Joule/cm^2 6 h after dosing, 7 days after PDT; for Body weight At the begining / Body weight At the end: one PDT treatment, mice, in g (unit assumed)
Procedure: (§3) The murine mammary carcinoma cells (4T1 line) were subjected to adherent culture. After growing to a confluence of 70%-80%, the cells in the culture flask were routinely digested, centrifuged and counted, and then resuspended with 0.85% normal saline to a density of 1×10^7 cells/mL. The cell suspension was injected into the left lateral middle axillary subcutaneous part of […] Bal b/c healthy mice (female, aged 6-8 weeks) at 0.1 mL/mouse. When the tumor diameter, which was observed every other day, reached 0.6-0.8 cm, the mice with well-growing tumors and no ulcers on the epidermis were selected for grouped treatment.
(1) Mice with similar body weight and uniform tumor size are selected and randomly divided into 7 groups with 6 mice for each group. After inoculation for 48 h, the mice were subjected to drug administration separately from the tail vein by group.
6 h after the drug administration, the mice were fixed to expose the tumor growth site. Light irradiation was performed for 8 min, using PDT-660 photodynamic therapy equipment at a laser wavelength of 660 nm and a light dose of 75 Joule/cm^2. Then both of the mice growth and tumor growth are observed continuously. 7 days after photodynamic therapy, the animals were sacrificed. The tumor was stripped and weighed, and the body weight was recorded.

[5] = tested on: murine mammary carcinoma 4T1 cells; test: Antitumor activity as photosensitizers on tumor-bearing mice (two PDT treatments); type: in vivo
Procedure: as §3
(2) Mice with similar body weight and uniform tumor size are selected and randomly divided into 4 groups with 6 mice for each group. After inoculation of 4T1 cells and the tumor volume grows to 50˜80 mm^3, the mice were subjected to a first drug administration from the tail vein by group.
6 h after the drug administration, the mice were fixed to expose the tumor growth site. As a first PDT treatment, light irradiation was performed for 8 min, using PDT-660 photodynamic therapy equipment at the laser wavelength of 660 nm and the light dose of 150 Joule/cm^2. One week later, the second PDT treatment (the dosage and lighting conditions were the same as those of the first PDT treatment) was performed. The mice were sacrificed 14 days after the treatment. The tumor was removed, weighed and recorded.

[6] = background statement; cited from earlier work
[7] = 0.25 mg/kg tail vein, two PDT treatments one week apart, 660 nm, 150 Joule/cm^2, 14 days after treatment
[8] = 0.25 mg/kg, two PDT treatments, mice, in g (unit assumed)

Which results are given for CCCCCCOC(C)c1c(C)c2cc3nc(c4c5[nH]c(cc6nc(cc1[nH]2)C(C)=C6CC)c(C)c5C(=O)C4)[C@@H](CCC(=O)O)[C@@H]3C (stereo partly shown) [HPPH, 2-(1-hexyloxyethyl)-2-devinyl pyropheophorbide-a, reference compound]?
cell viability (%) ([1]; 1 μg/mL, 660 nm, 8 J/cm^2): 65 ± 4%; cell viability (%) ([1]; 1 μg/mL, no light): 100 ± 3%; cell viability (%) ([1]; 2 μg/mL, 660 nm, 8 J/cm^2): 46 ± 1%; cell viability (%) ([1]; 2 μg/mL, no light): 100 ± 2%; cell viability (%) ([1]; 5 μg/mL, 660 nm, 8 J/cm^2): 25 ± 2%; cell viability (%) ([1]; 5 μg/mL, no light): 102 ± 3%; cell viability (%) ([1]; 10 μg/mL, 660 nm, 8 J/cm^2): 12 ± 4%; cell viability (%) ([1]; 10 μg/mL, no light): 96 ± 4%; cell viability (%) ([2]; 1 μg/mL, 660 nm, 8 J/cm^2): 83 ± 3%; cell viability (%) ([2]; 1 μg/mL, no light): 107 ± 4%; cell viability (%) ([2]; 2 μg/mL, 660 nm, 8 J/cm^2): 53 ± 2%; cell viability (%) ([2]; 2 μg/mL, no light): 103 ± 2%; cell viability (%) ([2]; 5 μg/mL, 660 nm, 8 J/cm^2): 33 ± 2%; cell viability (%) ([2]; 5 μg/mL, no light): 98 ± 1%; cell viability (%) ([2]; 10 μg/mL, 660 nm, 8 J/cm^2): 11 ± 2%; cell viability (%) ([2]; 10 μg/mL, no light): 99 ± 44%; cell viability (%) ([3]; 1 μg/mL, 660 nm, 8 J/cm^2): 68 ± 3%; cell viability (%) ([3]; 1 μg/mL, no light): 102 ± 4%; cell viability (%) ([3]; 2 μg/mL, 660 nm, 8 J/cm^2): 37 ± 3%; cell viability (%) ([3]; 2 μg/mL, no light): 98 ± 2%; cell viability (%) ([3]; 5 μg/mL, 660 nm, 8 J/cm^2): 26 ± 2%; cell viability (%) ([3]; 5 μg/mL, no light): 97 ± 1%; cell viability (%) ([3]; 10 μg/mL, 660 nm, 8 J/cm^2): 12 ± 2%; cell viability (%) ([3]; 10 μg/mL, no light): 101 ± 4%; Inhibitory rate (average ± SD, %) ([4]; 0.2 mg/kg tail vein): 72.2 ± 3.5%; Tumor weight (average ± SD, g) ([4]; 0.2 mg/kg tail vein): 0.045 ± 0.006 g; Body weight At the begining ([4]; 0.2 mg/kg): 20.5 ± 0.4; Body weight At the end ([4]; 0.2 mg/kg): 21.6 ± 0.4; Inhibitory rate (average ± SD, %) ([4]; 0.4 mg/kg tail vein): 89.5 ± 2.5%; Tumor weight (average ± SD, g) ([4]; 0.4 mg/kg tail vein): 0.017 ± 0.004 g; Body weight At the begining ([4]; 0.4 mg/kg): 20.7 ± 0.3; Body weight At the end ([4]; 0.4 mg/kg): 21.8 ± 0.2; Inhibitory rate (average ± SD, %) [5, 7]: 90.7 ± 2.1%; Tumor weight (average ± SD, g) [5, 7]: 0.088 ± 0.020 g; Body weight At the beginning [5, 8]: 20.5 ± 0.4; Body weight At the end [5, 8]: 22.5 ± 0.2; water solubility [6]: water-insoluble

— patent US11787816B2, “Chlorin compound, and preparation and use thereof” (Southwest Jiaotong University, priority 2021, dated 2023)
